Results taken from patent US9179694B2, “Method and composition for enhancing milk production and milk component concentrations” (PURINA ANIMAL NUTRITION LLC, priority 2003, dated 2015).

Assay: Dry matter feed intake in sorbitol feeding trials
Assay type: in vivo, Holstein cows
Conditions: for increase in dry matter feed intake: Pre-Partum Trial #1 (75 g/day wk −3..−1 only) versus Control Trial #1
Experimental: To determine the dry matter weight (or dry matter basis or dry basis) of a particular sample, the sample is first weighed. The weighed sample is then dried in an oven at a temperature that is adequate to drive off moisture from the sample without degrading the sample components, such as a temperature ranging from about 100° C. to about 110° C. The oven drying is continued until the weight of the dried sample remains constant, despite additional oven drying. During the pre-partum period, for all cows utilized in Example One or Example Two, the pre-partum control feed, as modified to include any sorbitol indicated above for the different trials, was placed in the feeding troughs of the different cows participating in the different trials once daily in the morning. Thereafter, these different pre-partum feeds (the pre-partum control feed, including any incorporated sorbitol dosage of a particular trial during the pre-partum period) of the different trials were lightly stirred, separately and individually, in front of the cows of the different trials three times per day during the pre-partum period to encourage additional feed ingestion by the cows. Leftover rations from the previous day's feeding were collected and weighed from each feeding trough during the pre-partum period, prior to feeding the test cows on a subsequent day. The cows of the different trials received a sufficient amount of the pre-partum to ensure at least about ten weight percent of the pre-partum feeds of the different trials remained in the feeding troughs of each trial each day of the pre-partum period, based on the amount of the different pre-partum feeds of the different trials provided at the beginning of each day. Feed refusals were measured daily during the pre-partum period, and water was supplied ad libitum. During the early post-partum period, for all cows utilized in Example One or Example Two, the first post-partum control feed, as modified to include any sorbitol indicated above for the different trials, was placed in the feeding troughs of the different cows participating in the different trials once daily in the morning. Thereafter, these first post-partum feeds (the first post-partum control feed, including any incorporated sorbitol dosage of a particular trial during the early post-partum period) of the different trials were lightly stirred, separately and individually, in front of the cows of the different trials three times per day during the early post-partum period to encourage additional feed ingestion by the cows. Leftover rations from the previous day's feeding were collected and weighed from each feeding trough during the early post-partum period, prior to feeding the test cows on a subsequent day. The cows of the different trials received a sufficient amount of the first post-partum feed to ensure at least about ten weight percent of the first post-partum feeds of the different trials remained in the feeding troughs of each trial each day of the early post-partum period, based on the amount of the different first post-partum feeds of the different trials provided at the beginning of each day. Feed refusals were measured daily during the early post-partum period, and water was supplied ad libitum. […] Thereafter, the second post-partum control feed were lightly stirred, separately and individually, in front of the cows of the different trials three times per day during the weeks +5 through +8 to encourage additional feed ingestion by the cows. Leftover rations from the previous day's feeding were collected and weighed from each feeding trough during weeks +5 through +8, prior to feeding the test cows on a subsequent day. […]

OC[C@@H](O)[C@@H](O)[C@H](O)[C@@H](O)CO [sorbitol]
Dry Matter Feed Intake (Pre-Partum Trial #1 (75/0/0 g/day in wk −3..−1/+1..+4/+5..+8), multiparious cows, weeks +1 through +8): 44.5 lbs/day
Dry Matter Feed Intake (Pre-Partum Trial #1 (75/0/0 g/day in wk −3..−1/+1..+4/+5..+8), multiparious cows, weeks −3 through −1): 29.9 lbs/day
Dry Matter Feed Intake (Pre-Partum Trial #1 (75/0/0 g/day in wk −3..−1/+1..+4/+5..+8), primiparious cows, weeks +1 through +8): 34.2 lbs/day
Dry Matter Feed Intake (Pre-Partum Trial #1 (75/0/0 g/day in wk −3..−1/+1..+4/+5..+8), primiparious cows, weeks −3 through −1): 17.8 lbs/day
increase in dry matter feed intake (multiparious cows, weeks +1 through +8): +9.6%
increase in dry matter feed intake (primiparious cows, weeks +1 through +8): +7.9%
Dry Matter Intake (Pre-Partum Trial #2 (75/0/100 g/day in wk −3..−1/+1..+4/+5..+8), multiparious cows, week +1): 32.7 lbs/day
Change in Dry Matter Feed Intake (Pre-Partum Trial #2 (75/0/100 g/day in wk −3..−1/+1..+4/+5..+8), multiparious cows, week +1 versus −1): 1.97 lbs/day
Dry Matter Intake (Pre-Partum Trial #2 (75/0/100 g/day in wk −3..−1/+1..+4/+5..+8), multiparious cows, week +2): 42.5 lbs/day
Dry Matter Intake (Pre-Partum Trial #2 (75/0/100 g/day in wk −3..−1/+1..+4/+5..+8), multiparious cows, week +3): 46.2 lbs/day
Dry Matter Intake (Pre-Partum Trial #2 (75/0/100 g/day in wk −3..−1/+1..+4/+5..+8), multiparious cows, week +4): 50.1 lbs/day
Dry Matter Intake (Pre-Partum Trial #2 (75/0/100 g/day in wk −3..−1/+1..+4/+5..+8), multiparious cows, week +5): 52.4 lbs/day
Dry Matter Intake (Pre-Partum Trial #2 (75/0/100 g/day in wk −3..−1/+1..+4/+5..+8), multiparious cows, week +6): 53.9 lbs/day
Dry Matter Intake (Pre-Partum Trial #2 (75/0/100 g/day in wk −3..−1/+1..+4/+5..+8), multiparious cows, week +7): 56.1 lbs/day
Dry Matter Intake (Pre-Partum Trial #2 (75/0/100 g/day in wk −3..−1/+1..+4/+5..+8), multiparious cows, week +8): 53.8 lbs/day
Dry Matter Intake (Pre-Partum Trial #2 (75/0/100 g/day in wk −3..−1/+1..+4/+5..+8), multiparious cows, week −1): 30.7 lbs/day
Dry Matter Intake (Pre-Partum Trial #2 (75/0/100 g/day in wk −3..−1/+1..+4/+5..+8), multiparious cows, week −2): 33.5 lbs/day
Change in Dry Matter Feed Intake (Pre-Partum Trial #2 (75/0/100 g/day in wk −3..−1/+1..+4/+5..+8), multiparious cows, week −2 versus −1): −2.88 lbs/day
Dry Matter Intake (Pre-Partum Trial #2 (75/0/100 g/day in wk −3..−1/+1..+4/+5..+8), multiparious cows, week −3): 30.9 lbs/day
Dry Matter Intake (Pre-Partum Trial #2 (75/0/100 g/day in wk −3..−1/+1..+4/+5..+8), multiparious cows, weeks +1 through +4): 42.9 lbs/day
Dry Matter Intake (Pre-Partum Trial #2 (75/0/100 g/day in wk −3..−1/+1..+4/+5..+8), multiparious cows, weeks +1 through +8): 48.4 lbs/day
Dry Matter Intake (Pre-Partum Trial #2 (75/0/100 g/day in wk −3..−1/+1..+4/+5..+8), multiparious cows, weeks +5 through +8): 54.2 lbs/day
Dry Matter Intake (Pre-Partum Trial #2 (75/0/100 g/day in wk −3..−1/+1..+4/+5..+8), multiparious cows, weeks −3 through −1): 31.8 lbs/day
decrease in dry matter feed intake (Pre-Partum Trial #2 (75 g/day pre-partum) versus Control Trial #2, multiparious cows, pre-partum period (weeks −3 through −1)): 7.0%
Dry Matter Intake (Pre/Post Trial #1 (150/125/100 g/day in wk −3..−1/+1..+4/+5..+8), multiparious cows, week +1): 36.6 lbs/day
Dry Matter Feed Intake (Pre/Post Trial #1 (150/125/100 g/day in wk −3..−1/+1..+4/+5..+8), multiparious cows, week +1, two-trial comparison with Control Trial #2 (Table 22)): 36.7 lbs/day
Change in Dry Matter Feed Intake (Pre/Post Trial #1 (150/125/100 g/day in wk −3..−1/+1..+4/+5..+8), multiparious cows, week +1 versus −1): 3.37 lbs/day
Change in Dry Matter Feed Intake (Pre/Post Trial #1 (150/125/100 g/day in wk −3..−1/+1..+4/+5..+8), multiparious cows, week +1 versus −1, two-trial comparison with Control Trial #2 (Table 22)): 3.35 lbs/day
Dry Matter Intake (Pre/Post Trial #1 (150/125/100 g/day in wk −3..−1/+1..+4/+5..+8), multiparious cows, week +2): 45.3 lbs/day
Dry Matter Feed Intake (Pre/Post Trial #1 (150/125/100 g/day in wk −3..−1/+1..+4/+5..+8), multiparious cows, week +2, two-trial comparison with Control Trial #2 (Table 22)): 45.6 lbs/day
Dry Matter Intake (Pre/Post Trial #1 (150/125/100 g/day in wk −3..−1/+1..+4/+5..+8), multiparious cows, week +3): 48.5 lbs/day
Dry Matter Feed Intake (Pre/Post Trial #1 (150/125/100 g/day in wk −3..−1/+1..+4/+5..+8), multiparious cows, week +3, two-trial comparison with Control Trial #2 (Table 22)): 48.8 lbs/day
Dry Matter Intake (Pre/Post Trial #1 (150/125/100 g/day in wk −3..−1/+1..+4/+5..+8), multiparious cows, week +4): 51.2 lbs/day
Dry Matter Feed Intake (Pre/Post Trial #1 (150/125/100 g/day in wk −3..−1/+1..+4/+5..+8), multiparious cows, week +4, two-trial comparison with Control Trial #2 (Table 22)): 51.5 lbs/day
Dry Matter Intake (Pre/Post Trial #1 (150/125/100 g/day in wk −3..−1/+1..+4/+5..+8), multiparious cows, week +5): 53.9 lbs/day
Dry Matter Feed Intake (Pre/Post Trial #1 (150/125/100 g/day in wk −3..−1/+1..+4/+5..+8), multiparious cows, week +5, two-trial comparison with Control Trial #2 (Table 22)): 54.2 lbs/day
Dry Matter Intake (Pre/Post Trial #1 (150/125/100 g/day in wk −3..−1/+1..+4/+5..+8), multiparious cows, week +6): 53.7 lbs/day
Dry Matter Feed Intake (Pre/Post Trial #1 (150/125/100 g/day in wk −3..−1/+1..+4/+5..+8), multiparious cows, week +6, two-trial comparison with Control Trial #2 (Table 22)): 54.1 lbs/day
Dry Matter Intake (Pre/Post Trial #1 (150/125/100 g/day in wk −3..−1/+1..+4/+5..+8), multiparious cows, week +7): 54.5 lbs/day
